This passage reports melting point results from a melting point compilation (Tetko et al.; mined from patent text by program, amines drawn as free bases though some values may be those of a salt).

Where only a bound is given, the exact number is not on record here.

Usually melting point stands for the temperature of the solid-liquid transition. Molecule `O=C(O)c1cc(S(=O)C(F)(F)F)c(Cl)cc1Cl` (stereo not given) yielded a melting point of 176 to 178 °C.
To `COc1cccc(CCl)c1SCc1ccccc1` belongs 54 °C.
To `O=C(NC1CCN(CC(O)c2ccccc2)CC1)c1ccccc1` (stereo not given) belongs 178 to 180 °C; to `Clc1ccc(C2=NCCc3c2ccc2ccccc32)cc1`, 138 to 140 °C; to `Cc1ccc(-c2ccc(-c3ccccc3)cc2)n1CC[C@H]1C[C@H](O)CC(=O)O1` (relative stereo), 104 to 107 °C.
To `Nc1nc(-c2cc(F)cc(F)c2)nc2nc(-c3ccco3)nn12` belongs 356 to 360 °C; to `COC(=O)C[C@@H]1CCC/C1=C\Cc1c(O)c2c(c(C)c1OC)COC2=O`, 72 to 74 °C.
The molecule `O=C(C[C@@H]1COCCO1)N[C@H]1CC[C@H](CCN2CCC(c3cccc4c3CCO4)CC2)CC1` returned a melting point of 190 °C.
In turn, `CCCn1c(=O)c2c(nc(/C=C/c3ccc(OC)c(O)c3)n2C)n(CCC)c1=O` yielded a melting point of 200 to 204 °C.
As for `CCN(CC)C(=O)Nc1ccc(Oc2ccc3sncc3c2)c(Cl)c1`, the figure is 141 °C; as for `O=C(O)C(=O)CC(=O)c1cccn1CCCCc1ccccc1`, 119 to 121 °C.
To `Clc1ccc2c3c([nH]c2c1)C1=CCCCN1CC3` belongs 165 °C; to `O=C1N=NC(=O)c2c1[nH]c1cc(Cl)cc(Cl)c21`, above 300 °C; to `COc1ccc(Cc2cc(O)ccc2OC)cn1`, 121 to 124 °C.
As for `COC(=O)NC1CCc2sc(Cl)c(C(=O)CCC(=O)O)c2C1` (stereo not given), the figure is 178 to 179 °C; as for `CCN1CCC2(CC1)COc1cc3c(cc12)N(C(=O)c1ccc(-c2ccc(C(=O)NNC(C)=O)cc2C)cc1)CC3`, 154 to 157 °C.
`Cc1ccc(OCCC(CCl)NC(=O)c2c(F)cccc2F)cc1` (stereo not given) had a melting point of 97 to 99 °C.
To `CC(C)(Cc1ccc(OCC(=O)O)cc1)NS(=O)(=O)c1ccc(Cl)cc1` belongs 177 to 178 °C.
To `CC(C)c1cccc(C(C)C)c1NC(=O)[C@H](C)NC(c1ccccc1)c1ccccc1` belongs 134 to 138 °C; to `Cc1cnc(-n2cc(C(F)(F)F)cn2)nc1Oc1cccc(C(F)(F)F)c1`, 103 to 105 °C; to `NCCOCC(P(=O)(O)O)P(=O)(O)O`, above 300 °C.
As for `CC(=NCc1ccc(Cl)cc1Cl)c1ccc(OCC(O)(Cn2cncn2)C(C)(C)C)cc1` (stereo not given), the figure is 101 °C; as for `O=C1CCCC2=C1C(c1cccc(C(F)(F)F)c1)C1=C(CCCC1)N2` (stereo not given), 250 to 251 °C.
The molecule `CCSCC12CCC(=O)C=C1CCC1C3CC(C)C(=O)C3(C)CCC12` (stereo not given) yielded a melting point of 102 °C.
With `O=C(O)c1cnc(N2CCCC2)c(OCC2CCCC2)n1`, the melting point lay in the range of 204 to 206 °C.
To `CC(C)(C)OC(=O)C[C@H](NC(=O)CNC(=O)c1csc(NC(=O)NCc2ccccc2)n1)C(=O)OC(C)(C)C` belongs 111 to 114 °C; to `Nc1nc(N)nc(-c2ccc(S(=O)c3ccccc3)cc2)n1` (stereo not given), 253 to 255 °C; to `COc1cc(O)c(C#N)c2cc(-c3ccc(O)c(F)c3)oc12`, 265 to 267 °C.
To `O=C(Nc1ccc(Br)cc1)N1COC2(c3ccc(F)cc3)Cc3cc(F)ccc3C2=N1` (stereo not given) belongs 208 to 209 °C.
As for `O=C(O)CC(CC(=O)O)c1ccc2oc3c(c2c1)CCCC3`, the figure is 165 to 170 °C; as for `S=C(NC1CC1)N1CCc2[nH]cnc2C1`, 185 °C; as for `CC(C)C1NC(=O)CN1C(=O)CNC(=O)CN1CCCC1=O` (stereo not given), 104 to 106 °C.
`COc1ccc(-c2nc(-c3ccccn3)cs2)cc1` yielded a melting point of 100 to 103 °C.
As for `Nc1nc2c(ncn2COC(COCc2ccccc2)COCc2ccccc2)c(=O)[nH]1`, the figure is 170 to 177 °C; as for `COc1ccc(-c2ccc(CC(=O)O)cc2F)cc1`, 140 to 142 °C.
As for `CC(C)Cn1c(CNC(=O)OC(C)(C)C)c(-c2ccc(Cl)cc2)c2cc(/C=C/C(N)=O)ccc2c1=O`, the figure is 152 to 154 °C; as for `CCCc1oc(C)cc(=O)c1C(=O)Nc1cccc(C)c1C`, 133 to 135 °C; as for `CN1C(=O)Cc2ccsc2S1(=O)=O`, 136 to 137 °C.
As for `CC(=O)C(=Cc1ccc(O)c(O)c1)C(C)=O`, the figure is 134 to 137 °C; as for `COc1ccc(OCCCCCCI)cc1`, 64 to 66 °C; as for `CN1CC(=O)Nc2cccc(Cl)c2C1=O`, 230 to 232 °C.
Turning to `C[C@H]1COc2c(C#N)cccc2C(=O)N(C[C@@H](CCN)c2ccc(Cl)c(Cl)c2)C1`, the melting point is 82 to 128 °C.
`COC(=O)COCc1cc2cc(C(F)(F)F)ccc2n1S(=O)(=O)c1ccccc1` displayed a melting point of 90 to 92 °C.
To `Cc1nc(N2CCN(Cc3ccc(C(F)(F)F)cc3)C2=O)sc1Br` belongs 107 to 108 °C; to `Brc1cccc2c1ccc1ccccc12`, 90 to 91 °C; to `COc1cc(C(C)(C)CCCC(=O)OC2CC(C)(C)NC(C)(C)C2)c(O)cc1C(C)(C)CCCC(=O)OC1CC(C)(C)NC(C)(C)C1`, 165 to 168 °C.
As for `O=C1OCC(c2ccccc2)C1CS` (stereo not given), the figure is 41 to 42 °C; as for `CCCn1nc(-c2ccc(OC)cc2)c2cccc(-c3ccc(F)cc3)c21`, 110 to 111 °C; as for `CCOCCOCCOCCOc1cc(OCCCCCCCCCCCCOc2ccccc2)cc(N(CC(=O)O)CC(=O)O)c1`, 58 to 61 °C.
As for `CNC(=O)c1ccc(C=CC(=O)O)cc1`, the figure is 273 °C; as for `CCc1c(C)[nH]c(=O)c(I)c1Oc1cc(C)cc(C)c1`, 240 °C.
Turning to `NNc1nc(Cl)nc2cc3c(cc12)OCO3`, the melting point is above 280 °C.
As for `Cn1cnc(S(=O)(=O)N2CCS(=O)(=O)CC2)c1`, the figure is 179 to 180 °C.
To `Cc1cc(C(N)=O)ncc1C(c1c(F)ccc(F)c1F)S(=O)(=O)CC1CC1` (stereo not given) belongs 222 to 223 °C; to `COc1cc(COc2nn(-c3ccccc3)cc2/C=C/S(C)=O)ccc1OCc1nc(-c2ccco2)oc1C` (stereo not given), 156 to 157 °C.
As for `CCCNC(=O)CCn1ccc(=O)c(O)c1`, the figure is 113 to 114 °C; as for `CCCc1c(C(=O)C(C)C)c2ccc(C(=O)NO)cc2n1Cc1ccccc1Cl`, 185 to 186 °C.
Turning to `O=C1NC(=O)C(=Cc2ccc(C(=O)CCc3ccccc3)cn2)S1`, the melting point is above 250 °C.
As for `NS(=O)(=O)c1cc2ccncc2o1`, the figure is 199 to 201 °C; as for `CNC(=NCCSCc1cc(CN2CCCCC2)ccn1)NC#N`, 79 to 81 °C.
To `CCOC(=O)c1cc(NC(C)=O)ccc1OC(C)=O` belongs 91.5 to 92.5 °C; to `CCOC(=O)N1CCC(Nc2nc3ccccc3n2Cc2ccccn2)CC1`, 162 °C; to `COc1cccc2c1C(OC)(OC)C=CC2=O`, 62 to 63 °C.
In turn, `CCOc1nc(SC)nc(N2CCS(=O)CC2)c1[N+](=O)[O-]` showed a melting point of 102 to 104 °C.
`CCSc1nc2c(cc1F)c(=O)c(C(=O)O)cn2C(C)(C)C`: the melting point came to 215 °C.
As for `CCCCCC(=O)N(Cc1ccccc1)c1nc(C)ns1`, the figure is 72 °C; as for `C=CC(=O)Oc1ccc(-c2cccc(-c3ccc(OC(=O)C=C)cc3)c2)cc1`, 106 °C; as for `CCCc1nn(-c2ccc(C(F)(F)F)cn2)cc1CCCOc1cc(CC(=O)O)ccc1F`, 88 to 89 °C.
The molecule `O=C(O)C=C1SC(=Nc2ccc(Br)c(Br)c2)N(c2ccc(Br)c(Br)c2)C1=O` registered a melting point of 235 to 237 °C.
As for `N#CC1=Cc2cc(Cl)ccc2OC1`, the figure is 124 to 126 °C; as for `COc1cc2c(c3c1OC(C)(C)C3)C(c1ccn(Cc3ccc(C(=O)NCCO)cc3)c(=O)c1)=NC(C)(C)C2`, 220 to 222 °C.
As for `O=C(O)CNC(=O)c1nc(Cl)c2ccc(OCc3ccccc3)cc2c1O`, the figure is 210 to 211 °C; as for `CCCN(CC)Cc1nc2cc(OC)c(OC)cc2c(-c2ccc(OC)c(OC)c2)c1C(=O)OCC`, 105 to 106 °C.
As for `O=Cc1ccc2oc(-c3ccc4ccc(Cl)cc4n3)cc2c1`, the figure is 235 to 236 °C; as for `CCOC(=O)c1c(C(F)(F)F)nn(-c2c(Cl)cc(Cl)cc2Cl)c1C`, 95 to 96 °C; as for `CCOc1cc2c(C)c(CCN3CCN(c4ccccc4)CC3)c(=O)oc2cc1OC`, 164 to 165 °C.
In the case of `CC(=O)CCc1cccc(C)c1NC(=O)CC1c2ccccc2Oc2ccccc21`, the melting point lay in the range of 179 to 180 °C.
As for `CONC(=N)c1ccc(-c2cc3ncn([C@H](C)[C@](O)(Cn4cncn4)c4ccc(F)cc4F)c(=O)c3s2)cc1`, the figure is 125 to 128 °C; as for `CC1COc2c(ccc(F)c2F)N1` (stereo not given), 51 °C.
As for `NCC1COc2cc(Cl)cc(-c3ccc(C(F)(F)F)cc3C(F)(F)F)c2N1` (stereo not given), the figure is 98 °C.
As for `N#Cc1cccc(-c2nnc(-c3cccnc3)s2)c1`, the figure is 258 to 261 °C; as for `Cc1coc(NC(=O)C(c2ccccc2)c2ccccc2)n1`, 209 to 211 °C; as for `COC(=O)CCn1cc(Cc2cccnc2)c2cc([N+](=O)[O-])ccc21`, 101 to 102 °C.
Molecule `CCN(CC)C(=O)c1cc(C(C)(C)C)c(OC(=O)c2cc(C(C)(C)C)c(O)c(C(C)(C)C)c2)c(C(C)(C)C)c1` gave a melting point of 203 to 205 °C.
As for `COc1ccc(C(=O)Nc2cc(NC(=O)c3cccc(N4CCOCC4)c3)ccc2Cl)cc1OC`, the figure is 148 °C; as for `CCCN(C=Cc1ccc([N+](=O)[O-])c2[nH]ncc12)CCC`, 166 to 167 °C; as for `CC(=O)c1ccc(Nc2cc(C)nc(N)n2)cc1`, 194 to 196 °C.
`O=C(NC1CCc2ccccc21)c1ccc2cnccc2n1` (stereo not given) displayed a melting point of 156 to 157 °C.
As to `COC(=O)c1ccnc(-c2cccc3cc(Cc4cccc(C(F)(F)F)c4)sc23)c1`, the melting point was 106 to 107 °C.
As for `COc1ccc2c(O)cc(=O)oc2c1C`, the figure is 195 to 197 °C.
